Test results reported in patent US9408793B2, “Selective compounds inhibiting CYP26A1 useful in cosmetic and pharmaceutical compositions” (GALDERMA RESEARCH & DEVELOPMENT, priority 2012, dated 2016).

Assays:
stratum corneum = assay: Measurement of the thickness of the stratum corneum in Fuzzy rats; type: in vivo, rat; conditions: for Thickness of the stratum corneum (μm) / Thickness of the stratum corneum relative to the carrier: male Fuzzy rats, topical, 24 days after the treatment
Procedure: Male Fuzzy rats are separated into four batches each comprising five rats. A topical treatment is carried out on each batch by administering, respectively, a carrier acting as a control, a dose of 0.000001% of retinol, a dose of 0.1% of retinol and a dose of 0.3% of a compound according to the invention corresponding to Example 1.
24 days after the treatment, the rats are euthanized and a 10 μm section of skin is sampled in order to perform a biopsy. A 1M NaOH solution is added to each section in order to soften the stratum corneum. The photos under a microscope are taken in a time period of 2 minutes after the addition of the 1M NaOH solution.
The table below presents the results on the thickness of the stratum corneum for the various batches.

human CYP26A1 enzyme = target: T1, human CYP26A1 enzyme (Homo sapiens, UniProt O43174); assay: Cell test, HeLa cells overexpressing human CYP26A1, metabolism of radiolabelled retinoic acid (3H-RA); type: cell-based; conditions: for Isoform activity in words: CYP26A1 versus CYP26B1, HeLa cell test; for AC50: HeLa cells overexpressing human CYP26A1, 3 h incubation with 3H-RA, mean of two experiments; for CYP26B1/CYP26A1 (selectivity ratio of mean AC50): ratio of AC50 CYP26B1 to AC50 CYP26A1
T1 construct: expressed in transfected cells; host or cells: HeLa cells
T1 sequence (O43174 1-497): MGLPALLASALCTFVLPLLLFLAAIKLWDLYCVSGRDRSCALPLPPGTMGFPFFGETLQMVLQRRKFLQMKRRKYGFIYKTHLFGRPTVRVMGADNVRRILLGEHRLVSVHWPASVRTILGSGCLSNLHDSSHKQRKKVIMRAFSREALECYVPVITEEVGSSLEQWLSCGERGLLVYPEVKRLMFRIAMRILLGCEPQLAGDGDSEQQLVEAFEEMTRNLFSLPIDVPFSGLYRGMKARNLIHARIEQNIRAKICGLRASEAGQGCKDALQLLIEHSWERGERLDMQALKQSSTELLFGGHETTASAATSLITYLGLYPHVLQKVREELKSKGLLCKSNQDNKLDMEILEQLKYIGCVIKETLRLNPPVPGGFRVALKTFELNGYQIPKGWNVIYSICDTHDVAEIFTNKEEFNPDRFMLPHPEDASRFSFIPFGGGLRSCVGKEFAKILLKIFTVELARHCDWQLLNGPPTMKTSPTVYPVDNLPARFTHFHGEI
Procedure: (§1) A cell test using HeLa cells overexpressing either the human CYP26A1 enzyme or the human CYP26B1 enzyme, similar to that described in White et al.(Proc Natl Acad Sci U S A. 2000 Jun 6; 97(12): 6403-8), was used. […] After the incubation time of 3 h, the reaction was stopped and an extraction phase was carried out in order to separate the aqueous and organic layers. The amount of radioactivity present in the aqueous layer was then measured as an indicator of the amount of RA which was metabolized.
(§2) A first experiment using 3 different concentrations of compounds according to the invention (0.1, 1 and 10 μM) was carried out in order to evaluate the inhibitory activity of the compounds. A second test was then carried out with a wide range of concentrations (0.01, 0.1, 0.5, 1, 5 and 10 μM).

human CYP26B1 enzyme = target: T2, human CYP26B1 enzyme (Homo sapiens, UniProt Q9NR63); assay: Cell test, HeLa cells overexpressing human CYP26B1, metabolism of radiolabelled retinoic acid (3H-RA); type: cell-based; conditions: 3 h incubation with 3H-RA, mean of two experiments
T2 construct: expressed in transfected cells; host or cells: HeLa cells
T2 sequence (Q9NR63 1-512): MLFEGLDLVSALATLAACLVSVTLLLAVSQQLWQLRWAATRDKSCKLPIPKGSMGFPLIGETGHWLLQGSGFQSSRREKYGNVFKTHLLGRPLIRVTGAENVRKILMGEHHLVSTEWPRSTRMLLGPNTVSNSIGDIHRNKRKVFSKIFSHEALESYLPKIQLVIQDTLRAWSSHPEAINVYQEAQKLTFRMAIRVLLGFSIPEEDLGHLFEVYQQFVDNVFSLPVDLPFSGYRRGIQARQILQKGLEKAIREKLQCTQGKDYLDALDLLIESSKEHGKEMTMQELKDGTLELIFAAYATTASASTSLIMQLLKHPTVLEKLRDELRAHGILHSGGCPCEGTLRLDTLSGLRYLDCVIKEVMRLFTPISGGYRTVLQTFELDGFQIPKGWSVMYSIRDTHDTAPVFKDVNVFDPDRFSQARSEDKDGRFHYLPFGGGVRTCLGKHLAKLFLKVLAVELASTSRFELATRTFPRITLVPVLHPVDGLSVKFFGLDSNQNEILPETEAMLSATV
Procedure: as §1
as §2, with “μM). The results obtained during these two tests are similar.” for “μM).”
The following table lists the mean of the AC50 values obtained over these two experiments.

CYP26B1 isoform = target: T3, CYP26B1 isoform (Homo sapiens, UniProt Q9NR63); conditions: background statement; cited from earlier work
T3 sequence (Q9NR63 1-512): T2 sequence (Q9NR63 1-512)

Row | SMILES | Thickness of the stratum corneum (μm) (stratum corneum; dose 0.000001%) | Thickness of the stratum corneum relative to the carrier (stratum corneum; dose 0.000001%) | Thickness of the stratum corneum (μm) (stratum corneum; dose 0.1%) | Thickness of the stratum corneum relative to the carrier (stratum corneum; dose 0.1%) | Isoform activity in words (human CYP26A1 enzyme) | AC50 (human CYP26A1 enzyme) [nM] | CYP26B1/CYP26A1 (selectivity ratio of mean AC50) (human CYP26A1 enzyme) | AC50 (human CYP26B1 enzyme) [nM] | Activity on the CYP26B1 isoform (CYP26B1 isoform) | Thickness of the stratum corneum (μm) (stratum corneum; dose 0.3%) | Thickness of the stratum corneum relative to the carrier (stratum corneum; dose 0.3%) | Photographs of the keratinous layer (FIGS. 2 and 3), result in words (stratum corneum; rats treated with 0.3% versus carrier)
1 | CC1=C(/C=C/C(C)=C/C=C/C(C)=C/CO)C(C)(C)CCC1 [Retinol] | 41.60 | 0.98 | 26.24 | 0.62 |  |  |  |  |  |  |  | 
2 | CCC(CC)C(c1ccc(Nc2nc3ccccc3s2)cc1)n1cncn1 (centres unmarked) [Rambazole] |  |  |  |  | active on the inhibition of the activity of the two isoforms | 4 | 16.82 | 64 | about 62 nM |  |  | 
3 | CC1(C)CCC(C)(C)c2cc(S(=O)(=O)CCc3ccc(C(=O)O)cc3)ccc21 [Compound 1, 4-[2-(5,5,8,8-Tetramethyl-5,6,7,8-tetrahydronaphthalene-2-sulphonyl)ethyl]benzoic acid] |  |  |  |  |  | 190 | 261.50 | 50300 |  | 24.07 | 0.57 | decrease in the thickness of the stratum corneum
4 | Clc1cccc(C(c2ccc3[nH]cnc3c2)n2ccnc2)c1 (centres unmarked) [Liarozole] |  |  |  |  | more active on CYP26B1 than on CYP26A1 |  |  | 320 |  |  |  | 
